For 100 compounds, IC50 results are on record in PubChem BioAssay AID493003 (Sanford-Burnham Center for Chemical Genomics, 2010).

The source made the active and inactive calls. How the calls were made is not given here.

As usually defined, the IC50 is the concentration at which inhibition is half-maximal.

In the experiment the test system is S. cerevisiae tim10-1 mutant growth, luminescence. The experiment is described as follows: growth inhibitors of tim10-1 mutant yeast, dose response, luminescence, S. cerevisiae, uHTS hits (AID 493003).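 Further: yeast growth measured after about 22 hours at 25 °C.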
`COc1ccc(C(=O)O/N=C(\N)c2ccccc2Cl)cc1OC`: the IC50 was 15 µM. Then `CC(C)NC(=S)N/N=C1\CCCCC1C1CCCCC1` (stereo not given), with 37.5 µM; and `CC1CCCCN1S(=O)(=O)c1ccc(NC(=O)c2ccco2)cc1` (stereo not given), with 22.7 µM. Then `Cc1nn(Cc2c(F)c(F)c(F)c(F)c2F)c(C)c1NC(=O)c1ccc(COc2ccc(Cl)cc2Cl)o1`, with 25.5 µM; and `COc1ccc(C(CCNC(C)c2ccccc2)c2ccc(F)cc2)cc1` (stereo not given), with 20.6 µM; and `CC(=O)/C(=N\Nc1ccc(Cl)cc1Cl)Sc1cccc2cccnc12`, with 41.3 µM. Turning to `COc1ccc(-c2oc3ncnc(NCCCN(C)C)c3c2-c2ccc(OC)cc2)cc1`, the IC50 is 65.5 µM.

On to `Cc1nn(C)c(C(=O)NC(=S)Nc2ccc([N+](=O)[O-])cc2)c1Cl`, for which the IC50 was 74.5 µM. Then `Cc1c(C(=O)NC2CCCc3ccccc32)oc2ccccc12` (stereo not given), with 20.2 µM; and `Cc1nn(Cc2c(F)c(F)c(F)c(F)c2F)c(C)c1NC(=O)c1ccc(COc2ccccc2Cl)o1`, with 60.3 µM. Then `N/C(=N\OC(=O)Cc1ccc([N+](=O)[O-])cc1)c1cccc(Br)c1`, with 27.4 µM; and `CC(C)NC(=S)N/N=C1\CCCCc2ccccc21`, with 13.9 µM; and `CCCCOc1cccc(-c2cc(C(=O)NNC(=S)NCC)c3ccccc3n2)c1`, with 89.3 µM. Take `O=C(Nc1cccc(C(=O)N2CCN(c3cccc(Cl)c3)CC2)c1)c1ccccc1`: the IC50 was 35.2 µM.

`CC[C@@H]1CC=C[C@H]2[C@H]1C(=O)N(Cc1ccccc1)[C@H]2c1ccoc1`: the concentration for half-maximal inhibition (IC50) is 7.61 µM. Consider `O=C(NC(=S)Nc1cccc(C(F)(F)F)c1)c1csnn1`, for which the IC50 is 26 µM. The figure for `Oc1ccccc1-c1nc(NCc2cccnc2)c2ccccc2n1` is 60.5 µM; for `CCc1nn(-c2ccccc2)c(=S)c2ccccc12` it is 22.8 µM. The figure for `Fc1cc(F)cc(Nc2nc(Cl)nc(NC3CCCC3)n2)c1` is 37.7 µM; for `COc1ccc(-c2cc(C(=O)N3CCN(c4ncccn4)CC3)c3ccccc3n2)c(OC)c1` it is 28.5 µM.

On to `Cc1ccc(NC2=C/C(=N\S(=O)(=O)c3cccs3)c3ccccc3C2=O)c(C)c1`, for which the concentration for half-maximal inhibition (IC50) is 3.94 µM. The figure for `Cc1ccc(F)c([C@H]2C3C=CCC(c4ccccc4)C3C(=O)N2Cc2ccccc2)c1` (stereo not given in full) is 15.2 µM; for `COc1ccc2oc(=O)c(-c3csc(Nc4cccc(O)c4)n3)cc2c1` it is 21.9 µM; for `Cc1nn(C)c(C)c1NC(=O)Nc1ccc(Cl)c(Cl)c1` it is 22.4 µM. Then `CCCCCCSc1ccc([C@H]2N[C@@](C)(C(=O)OC)[C@H]3C(=O)N(C)C(=O)[C@@H]23)cc1`, with 53.2 µM; and `COc1ccc(C(=O)Nc2ccc(-n3nncc3C(C)(C)C)cc2)cc1`, with 16.4 µM; and `C[C@H]1C=CC(=O)O[C@H]1c1ccccc1`, with 21 µM.

Regarding `CCSc1nc2ccccc2n1C(=O)/C=C\c1ccc(OC)c(OC)c1`, the IC50 is 10.4 µM. In the case of `NC(=S)N/N=C/c1ccccc1OCCSc1ccc(Cl)cc1`, the IC50 was 74.7 µM. The figure for `CC1CCN(S(=O)(=O)c2ccc(NC(=O)Cc3cccs3)cc2)CC1` is 46.5 µM. Then `Cc1ccc(NC(=S)NCc2ccc3[nH]c4c(c3c2)CCCC4)cc1`, with 22.1 µM. The figure for `O=C(c1ccc2ncsc2c1)N1CCN(c2cccc(C(F)(F)F)c2)CC1` is 38.4 µM; for `O=C(NC1CCCCC1)c1ccc(-c2ccc(Cl)cc2)o1` it is 17.4 µM; for `CCOC(=O)c1cnc2ccc(OC)cc2c1Nc1ccc2c(c1)OCCO2` it is 79.3 µM. `Cc1ccccc1C(=O)NC(=S)Nc1ccccc1N1CCCC1`: the IC50 was 17.3 µM. Then `CN1CCN(c2cc(N3CCc4ccccc4C3)c(F)cc2[N+](=O)[O-])CC1`, with 71.6 µM; and `CCCCN1/C(=C/c2ccc3ccccc3[n+]2CC)Sc2ccccc21`, with 19.2 µM.

Consider `COc1ccccc1-c1cc2ccccc2[nH]1`, for which the IC50 was 46.9 µM.

For the compound `Cc1ccsc1C1Nc2ccccc2-c2nc3ccccc3n21` (stereo not given), the IC50 was 28.5 µM. The figure for `CC(C)(C)C1CCc2nc(NC(=O)Cc3cn4ccsc4n3)sc2C1` (stereo not given) is 22.7 µM. Then `Cc1nn(-c2ccccc2)c2c1C1(C(=O)N(C)c3ccccc31)C(C#N)=C(N)O2` (stereo not given), with 53.4 µM; and `Cc1cccc(/C(N)=N/OC(=O)COc2ccc(Cl)cc2)c1`, with 48.4 µM.

Turning to `Cn1c(NCCCO)nc2c(c1=O)C1(CCCCC1)Cc1ccccc1-2`, the IC50 is 12.3 µM.

With `COc1ccc(Cl)cc1NC(=O)CN(C)C(=O)C12CC3CC(CC(Cl)(C3)C1)C2`, the IC50 was 9.65 µM.

In the case of `OC(COc1ccc2ccccc2c1Br)Cn1cnc(-c2ccccc2)c1` (stereo not given), the IC50 is 18.1 µM. Then `Nc1cc2c(cc1C(=O)c1ccc(Cl)cc1)OCCO2`, with 38.2 µM.

Turning to `Cc1ccc(S(=O)(=O)Nc2ccc(N=Nc3ccc(O)cc3)cc2)cc1`, the IC50 was 20.9 µM. Then `COc1ccc2sc(-c3ccc(S(C)(=O)=O)cc3)c(C#CCO)c2c1`, with 24.2 µM. The figure for `C(=N\N1CCOCC1)/c1cn(-c2ccccc2)nc1-c1ccccc1` is 33.7 µM; for `O=C(Nc1cccc(C(F)(F)F)c1)N1CCC(c2nc(-c3ccc(F)cc3)no2)CC1` it is 74.7 µM. `O=[N+]([O-])/C(C(Cl)=C(Cl)Cl)=C(/Sc1ccccc1)N1CCCCC1`: the IC50 was 38.7 µM. Then `CC(C)(C)C(=O)NCCN1C(=O)S/C(=C\c2ccc([N+](=O)[O-])cc2)C1=O`, with 32.3 µM. Then `O=[N+]([O-])c1ccccc1N/N=C/c1c[nH]c2ccccc12`, with 13.8 µM. The figure for `CN1CCCN(C(c2ccccc2)c2ccc(Cl)cc2)CC1` (stereo not given) is 30.9 µM. In the case of `Nc1nc(Nc2cccc(C(F)(F)F)c2)nc(C(F)(F)F)n1`, the IC50 is 23.4 µM. On to `COc1ccccc1N1C(=O)CC(Sc2n[nH]c(-c3cccc(C)c3)n2)C1=O` (stereo not given), for which the IC50 is 7.68 µM. As to `CCOc1ccc(-n2cc(-c3ccccc3)c3c(=O)[nH]cnc32)cc1`, the IC50 was 14.9 µM. On to `O=C1NCCc2c1[nH]c1c(Cl)ccc(Cl)c21`, for which the IC50 was 47.8 µM.

For the compound `CCCc1cc(-c2n[nH]c(=S)n2-c2cccc(C)c2)cs1`, the IC50 is 37.5 µM. For the compound `CCOc1ccc(-c2n[nH]c(C)c2Oc2ccc(OC)cc2)c(O)c1`, the IC50 was 16.4 µM. For `N/C(=N\OC(=O)CCCc1ccccc1)c1ccccc1Cl`, the IC50 is 16.4 µM. As for `CCCCC(CC)C(=O)Nc1ncc([N+](=O)[O-])s1` (stereo not given), the IC50 was 19.3 µM. The figure for `Cc1ccc(NC(=S)/N=C(\N)Nc2nc(C)c3cc(C)ccc3n2)c(C)c1` is 12.7 µM. The figure for `CCN1C(=O)C2(C(C#N)=C(N)Oc3c2c(C)nn3-c2ccccc2)c2ccccc21` (stereo not given) is 22.2 µM; for `O=C(Nc1ccc(N2CCN(C(=O)c3cccs3)CC2)cc1)c1cccc(F)c1` it is 40.5 µM; for `Cc1ccc(Nc2nc(Cl)nc(N(C)C#N)n2)cc1` it is 25.1 µM. The figure for `CN1CCN(c2ccccc2NC(=O)c2ccc(-c3cccc(Cl)c3)o2)CC1` is 21.4 µM; for `COc1ccc2sc(N(CCCN(C)C)C(=O)c3ccc(S(=O)(=O)N4CCCc5ccccc54)cc3)nc2c1` it is 16.4 µM. With `O=C(c1cccs1)c1c[nH]cc1-c1ccccc1`, the IC50 is > 100 µM (inactive). Then `COc1ccc(C)cc1NC(=O)NCCC1=CCCCC1`, with 32.2 µM; and `COc1ccc2cc3cc(C(=O)Nc4ccccc4N4CCN(C)CC4)oc3nc2c1`, with 17.5 µM. Then `CCN(CC)c1ccc(NC(=O)CCCCCN2C(=O)c3ccccc3C2=O)cc1`, with 14.3 µM; and `CCOC(=O)c1c(OCC)[nH]c2c1cc(O)c1ccccc12`, with 17.9 µM; and `CC(C)(C)c1ccc(CN2N=Nc3ccccc3S2(=O)=O)cc1`, with 6.1 µM. Then `O=C(Nc1ccccc1Br)C1CC(=O)N(c2ccc3c4c(cccc24)CC3)C1` (stereo not given), with 77.7 µM; and `O=C(C1CCC1)N1CCc2cc(S(=O)(=O)N3CCN(c4ccccn4)CC3)ccc21`, with 24.3 µM; and `S=C(Nc1ccc(Cl)cc1)c1nc2ccccc2[nH]1`, with 23.7 µM. With `Cc1cc(C)cc(OCCCOc2cccc3cccnc23)c1`, the IC50 was 32.4 µM. The figure for `Fc1c(F)c(C(F)(F)F)c(F)c(F)c1N/N=C\c1cccs1` is 11 µM; for `CN(C1CCCCC1)S(=O)(=O)c1ccc(NC(=O)c2ccc(Br)o2)cc1` it is 30.6 µM; for `Cc1nonc1C1CCCN1C(=O)c1cc(COc2cccc(C(F)(F)F)c2)on1` (stereo not given) it is 17.3 µM. The figure for `N/C(=N\OC(=O)c1cccc(Cn2cc(C(F)(F)F)ccc2=O)c1)c1ccccc1` is 23.3 µM; for `CCOC(=O)Cc1csc(NC(=O)CSc2ccc(Br)cc2)n1` it is 37.8 µM; for `CC(C)C1O/C(=N/C(=O)Nc2ccc(Cl)c(Cl)c2)NC1=O` (stereo not given) it is 32.3 µM. The figure for `Cc1nn(Cc2ccc(Cl)cc2)c(C)c1NC(=O)c1c(-c2ccccc2)noc1C` is 76.1 µM. Regarding `Cc1[nH]c(-c2ccc(F)cc2)cc1C(=O)N1CCN(c2ccccc2F)CC1`, the IC50 is 35.5 µM.

For the compound `CCOC(=O)c1c(-c2ccccc2)csc1NC(=S)NC`, the IC50 was 44.7 µM. The figure for `Cc1onc(-c2ccc3c(c2)OCO3)c1-c1ccc2[nH]ccc2c1` is 14.3 µM; for `CN(C)CCCN1c2ccccc2CCc2ccc(Cl)cc21` it is 37.8 µM. Then `CO/N=C/c1ccc(Sc2ccccc2N)c([N+](=O)[O-])c1`, with 56.4 µM; and `CCOC(=O)c1sc(=S)n(Cc2ccccc2)c1N`, with 50.4 µM. Then `CN1C(=O)C(O)(CC(=O)c2cccc(-n3cccc3)c2)c2ccccc21` (stereo not given), with 40 µM; and `C=CC(C)(C)c1c(O)c(CC=C(C)C)c(O)c2c(=O)c3ccc(O)c(O)c3oc12`, with 30.7 µM; and `CC(C)n1c(-c2ccco2)csc1=Nc1cccnc1`, with 43 µM. Regarding `C/C(=N\O)c1cc(Cl)cc(Cl)c1O`, the half-maximal inhibitory concentration (IC50) was 15 µM. Take `CC(C)(C)c1ccc(-c2n[nH]c(=S)n2Cc2ccccc2)cc1`: the IC50 was 33.1 µM. The figure for `Cc1cc(C)n(-c2nnc(NC34CC5CC(CC(C5)C3)C4)nn2)n1` is 46.4 µM. Consider `CSc1nc(N)nc(-c2cccs2)c1C#N`, for which the IC50 was 32.5 µM. Then `O=c1oc2ccccc2c(O)c1/C=C1\C=Nc2ccccc21`, with 6.24 µM.

For the compound `CN=C(Nc1cc(Cl)ccc1Cl)SC1CC(=O)N(c2ccc(C(=O)OC)cc2)C1=O` (stereo not given), the IC50 was 12.6 µM.
